Data on 2 compounds can be found in patent US6599917B1, “Quinuclidine compounds and drugs containing the same as the active ingredient” (priority 1999, dated 2003).

The test system of assay [1] is triglyceride biosynthesis. In words: Measurement of triglyceride biosynthesis inhibitive activity in a rat liver cell. It counts as cell-based. The method, then: (§1) Measurement of Cholesterol and Triglyceride Biosynthesis Inhibitive Activities in a Rat Liver Cell
(§2) A liver cell was isolated from a male SD rat according to a usual method (collagenase perfusion method) and subjected to an experiment.
(§3) The isolated liver cells were planted in an amount of 500 μ1 every well on a Type collagen coated 24 well plate (cell density: 4×10^5 cell/ml). As the cell culture solution, a Williams'E medium (adjusted to pH 7.4) containing 10% FCS, 1 μM insulin, 1 μM dexamethasone, 100 units/ml penicillin and 10 μg/ml streptomycin was used. After the liver cells were incubated in a CO2 incubator for 2 hours, unstuck cells were removed and the liver cells were further incubated overnight.
(§4) After the culture medium was exchanged, the specimen diluted in a 10% DMSO-90% cell culture solution was added to each well in an amount of 5 μ1. DMSO (final concentration: 0.1%) was added to a control group. A [1-^14C]Acetic acid, sodium salt (5 μCi/well) was added to the media 10 minutes and 4 hours after the specimen was added for the measurement of cholesterol synthesis inhibitive action and for the measurement of triglyceride synthesis inhibitive action respectively, followed by culturing for further 2 hours.
(§5) After the cultivation was finished, the supernatant was removed and the cells were washed using PBS(−)(Phosphate buffered saline (Ca^2+, Mg^2+free) twice. Hexane/isopropyl alcohol (3:2, v/v) was added to the cells and the cells were then allowed to stand for 10 minutes to extract intracellular lipid. The extract was transferred to a glass tube and exsiccated under a nitrogen gas stream. Further, the exsiccated extract was washed with 25 mL of petroleum ether and then dissolved in petroleum ether containing the following components: 0.01% squalene, 0.3% free cholesterol, 0.3% cholesterol acetate, 0.1% triolein, 0.01% farnesol and 0.3% lanosterol.
(§6) The resulting solution was spotted on a TLC plate to perform an isolating operation. The spotted solution was developed for 10 minutes by using toluene/isopropyl ether (1:1, v/v) as the solvents and for further 15 minutes by using heptane in place of the above solvent after it was dried using air.
(§7) After the development was finished, the TLC plate was subjected to iodine color development. After each position of free cholesterol and triolein which were used as standards was confirmed, the image of the TLC plate was transferred to a BAS 2000 (Fuji Film) imaging plate by exposure performed for 16 hours. This transferred image was analyzed using a BAS 2000 IP Reader and an Imaging analyzer II to measure radiative activities contained in the free cholesterol and triglyceride fractions.
(§8) The cholesterol biosynthesis inhibitive activity was expressed by a concentration (IC50) at which 50% of the radiative activity of the control group was inhibited and the triceride biosynthesis inhibitive activity was expressed by an inhibition rate (%) to the control group.

In assay [2] the test system is cholesterol biosynthesis. In words: Measurement of cholesterol biosynthesis inhibitive activity in a rat. The class given is in vivo. The conditions noted are these: 2 h; male SD rat, oral, dose 1 mg/kg, inhibition rate to control group. As to the method:
Measurement of Cholesterol Biosynthesis Inhibitive Activity in a Rat
(I) An SPF grade male SD rat (4 weeks age, SLC) was bred for more than one week in a day-night-reversal room and subjected to an experiment made in the daytime. The compound dissolved in a 2% Tween 80 solution was administered (5 ml/kg) to the rat using an oral sonde. After one hour, a [1-^14C]Acetic acid, sodium salt (1.67-2.22 GBq/mmol, 37 MBq/ml, NEN) prepared by diluting to 1.85 MBq/ml by using physiological saline was intraabdominally administered (300 μ1/animal). After one hour, the rat was anesthetized by diethyl ether to carry out exsanguination from the aorta abdominalis. The collected blood was centrifuged at 3000 rpm for 10 minutes to prepare blood plasma.
(II) 1 ml of 4N KOH and 1 ml of ethanol were added to 2 ml of the blood plasma, which was then incubated at 65° C. for one hour and there after, 3 ml of petroleum ether was added. The plasma was shaken for 30 minutes. After the water phase was separated from the organic phase by centrifugation, it was frozen at −80° C. and the radiative activity of the organic phase was measured using a liquid scintillation counter. Or the organic phase was evaporated to dryness using nitrogen gas and the residue was dissolved as a marker in 25 µl of chloroform containing squalene, farnesol and cholesterol. This sample was applied to a TCL plate (Merck) and developed using toluene and isopropyl ether (1:1) for 15 to 20 minutes. A band of cholesterol was cut from the plate to measure the radiative activity by using a liquid scintillation counter. The cholesterol biosynthesis inhibition activity was expressed by an inhibition rate (%) to a control group.

Assay [3] has as its system cholesterol biosynthesis. In words: Measurement of cholesterol biosynthesis inhibitive activity in a rat liver cell. The class given is cell-based. The conditions noted are these: isolated rat liver cells, [1-14C]acetic acid added 10 minutes after the specimen. The method, then:
as §1, §2, §3, §4, §5, §6, §7, §8

In assay [4] the target is T1, squalene synthesizing enzyme (Rattus norvegicus, UniProt Q02769).
T1 construct: The liver was excised from a male Spraugue-Dawly rat; from tissue; host or cells: liver microsome fraction of male Sprague-Dawley rat (8 to 9 weeks)
T1 sequence (Q02769 1-416): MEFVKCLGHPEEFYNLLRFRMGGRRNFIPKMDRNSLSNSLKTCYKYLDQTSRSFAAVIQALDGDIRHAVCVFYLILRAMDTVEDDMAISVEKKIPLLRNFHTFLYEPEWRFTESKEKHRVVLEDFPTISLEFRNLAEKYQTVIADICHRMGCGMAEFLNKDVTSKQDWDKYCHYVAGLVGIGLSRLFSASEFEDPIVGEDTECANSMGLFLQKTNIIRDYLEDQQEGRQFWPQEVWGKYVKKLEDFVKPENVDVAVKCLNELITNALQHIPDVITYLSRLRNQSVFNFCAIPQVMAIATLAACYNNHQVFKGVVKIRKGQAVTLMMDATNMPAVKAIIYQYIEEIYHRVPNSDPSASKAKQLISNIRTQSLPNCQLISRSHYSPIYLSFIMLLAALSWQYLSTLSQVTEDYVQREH
In words: Measurement of squalene synthesizing enzyme inhibitive activity by using a rat liver microsome. It counts as biochemical. The conditions noted are these: [3H]-farnesylpyrophosphoric acid. As to the method: Measurement of Squalene Synthesizing Enzyme Inhibitive Activity by Using a Rat Liver Microsome
(I) The reaction was run on a scale of 500 μ1. 200 µl of a solution containing 125 mM tris-hydrochloric acid (pH: 7.3), 2.5 mM magnesium chloride, 5 mM potassium fluoride and 10 mM reduction type nicotinamidoadenine dinucleotide phosphoric acid, 100 µl of the specimen solution with a 5-fold concentration, 100 µl of distilled water and 50 µl of 0.4 to 1 mg/ml rat liver microsome prepared by the following method were mixed.
(II) The above mixture was pre-incubated at 37° C. for 10 minutes and thereafter, 50 µl of 100 μM [^3H]-farnesylpyrophosphoric acid (30 mCi/mmol, NEN) was added to the mixture to start a reaction. The reaction was continued at 37° C. for 10 minutes. 1 ml of ethanol was added to the resulting mixture to terminate the reaction and then 1 ml of distilled water and 3 ml of petroleum ether were added to the reaction solution, which was then shaken for 30 minutes. The water phase was separated from the oil phase, the water phase was frozen at −70° C. in dry ice/methanol and the radiative activity of the organic phase was measured using a liquid scintillator. Or the organic phase was evaporated to dryness using nitrogen gas and the residue was dissolved as a marker in 25 µl of chloroform containing squalene, farnesol and cholesterol. This sample was spotted on a TCL plate (Merck) and developed using heptane for 15 to 20 minutes. A band of squalene was cut from the plate to measure the radiative activity by using a liquid scintillation counter. The data was expressed by a concentration (IC50) at which 50% of the radiative activity of a control group was inhibited.
Method of the Preparation of a Rat Liver Microsome
The following operations were all carried out on ice and the centrifugation was performed at 4° C. The liver was excised from a male Spraugue-Dawly rat (hereinafter referred to as SD rat) (8 to 9 weeks age) and perfused with 1.15% potassium chloride to remove the blood. Then, the liver was minced using a forceps and the minced liver was homogenized using a Teflon homogenizer. The resulting sample was centrifuged at 16000×g twice for 15 minutes. The supernatant was further centrifuged at 105000×g for 60 minutes. The obtained deposit was determined as a microsome fraction, which was then suspended in a 25 mM tris-hydrochloric acid solution. The concentration of protein was measured quantitatively by a Bradford method and the concentration of protein was adjusted to 20 mg/ml by using the same solution. The resulting solution was stored at […].

For `O[C@]1(C#Cc2ccc(OCC3OCCO3)nc2Cc2ccccc2)CN2CCC1CC2` [Example 153, (3R)-3-[2-Benzyl-6-(1,3-dioxolan-2-yl)methyloxy-3-pyridyl]ethynyl-3-quinuclidinol], the inhibition at 1 µM in assay [1] (Rattus norvegicus, 6 h, read-out: Triglyceride biosynthesis inhibitive activity inhibition in 1 μM of the specimen) worked out at 85%. The same compound returned an inhibition in vivo at 1 mg/kg in the assay on cholesterol biosynthesis [2] of 82%. Also, the half-maximal inhibitory concentration (IC50) in the assay on cholesterol biosynthesis [3] (10 min) was determined as 55 nM; in assay [4] it was 11 nM.
In the case of “(3R)-3-[Benzyl-6-(3,3-ethylenedioxypyrrolidine-1-yl]-3-pyridyl]ethynyl-3-quinuclidinol [Example 118]”, in assay [1] (isolated rat liver cells, 1 μM of the specimen, [1-14C]acetic acid added 4 hours after the specimen, inhibition rate to control group), the “Triglyceride biosynthesis inhibitive activity inhibition in 1 μM of the specimen” value is listed as 85%. The half-maximal inhibitory concentration (IC50) in the assay with cholesterol biosynthesis [3] turned out to be 75 nM; in assay [4] it was 2.5 nM.
